From patent publication US6653478B2, “Substituted benzimidazol-2-ones as vasopressin receptor antagonists and neuropeptide Y modulators” (Ortho-McNeil Pharmaceutical, Inc., priority 2000, dated 2003)

Key:
Parameters in all cases: expressed in transfected cells; host or cells: HEK-293 (membranes)
[1] = biological target: human V1a receptor (Homo sapiens, UniProt P37288); experiment: V1a binding assay (3H-AVP displacement, HEK-293 membranes); conditions: for inhibition at 1 µM: 1.0 μM compound, read-out: V1a@1.0, % Inh
Chain of human V1a receptor (P37288 whole entry): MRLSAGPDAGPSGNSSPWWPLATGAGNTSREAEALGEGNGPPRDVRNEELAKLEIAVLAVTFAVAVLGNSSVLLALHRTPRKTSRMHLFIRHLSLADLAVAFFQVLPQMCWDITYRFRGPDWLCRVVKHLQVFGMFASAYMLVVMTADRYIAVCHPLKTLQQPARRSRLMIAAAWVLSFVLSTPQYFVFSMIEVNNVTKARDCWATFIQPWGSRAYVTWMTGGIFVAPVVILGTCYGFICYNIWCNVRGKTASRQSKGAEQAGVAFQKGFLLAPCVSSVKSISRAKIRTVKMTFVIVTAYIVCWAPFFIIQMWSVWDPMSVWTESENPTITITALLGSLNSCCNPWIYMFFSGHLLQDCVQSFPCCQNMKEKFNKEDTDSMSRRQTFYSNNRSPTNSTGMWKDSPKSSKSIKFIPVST
Description: (§1) V1a, V1b or V2 Binding Assay
(§2) Receptor binding studies were performed using recombinant human V1a, V1b or V2 receptors. Cellular membranes were harvested from HEK-293 cells transfected to express either the V1a, V1b or V2 receptors. Compounds were evaluated for their ability to displace ^3H-arginine vasopressin (^3H-AVP; specific activity 40-87 Ci/mmol; NEN Life Sciences, Boston, Mass.). Compounds were solubilized in dimethylsulfoxide (DMSO) and diluted to working concentration of 10% DMSO with assay buffer (50 mM Tris, 5 mM MgCl2, 0.1% BSA, pH 7.5). Assay buffer was supplemented with several protease inhibitors (1 mM Pefabloc, 5 μg/ml aprotinin/leupeptin/pepstatin A, 50 μg/ml bacitracin; Sigma Chemical, St. Louis, Mo.). Non-specific binding was determined using 1.25 μM arginine vasopressin (AVP; Peninsula Labs, Belmont, Calif.). Assay reagents and test compounds were added to 96-well round bottom polypropylene plates (145 μl buffer, 5 μl compound in 10% DMSO, 25 μl buffer containing 10,000 cpm tracer, 25 μl cell membrane). After incubation for 1 hour at room temperature, the well contents were aspirated across a Unifilter GF/C plate (Packard Instrument, Downers Grove, Ill.) which had been presoaked in 0.3% polyethyleneimine to prevent peptide sticking. The wells were washed repeatedly with cold saline containing 0.05% Tween 20. The plate was then dried and 25 μl Microscint-20 cocktail (Packard Instruments) added to each well. The plates were sealed and counted on a TopCount scintillation counter (Packard Instruments) using quench correction.

[2] = biological target: T1, human V1b receptor (Homo sapiens, UniProt P47901); experiment: V1b binding assay (3H-AVP displacement, HEK-293 membranes); conditions: for inhibition at 1 µM: 1.0 μM compound, read-out: V1b@1.0, % Inh
T1 sequence (P47901 1-424): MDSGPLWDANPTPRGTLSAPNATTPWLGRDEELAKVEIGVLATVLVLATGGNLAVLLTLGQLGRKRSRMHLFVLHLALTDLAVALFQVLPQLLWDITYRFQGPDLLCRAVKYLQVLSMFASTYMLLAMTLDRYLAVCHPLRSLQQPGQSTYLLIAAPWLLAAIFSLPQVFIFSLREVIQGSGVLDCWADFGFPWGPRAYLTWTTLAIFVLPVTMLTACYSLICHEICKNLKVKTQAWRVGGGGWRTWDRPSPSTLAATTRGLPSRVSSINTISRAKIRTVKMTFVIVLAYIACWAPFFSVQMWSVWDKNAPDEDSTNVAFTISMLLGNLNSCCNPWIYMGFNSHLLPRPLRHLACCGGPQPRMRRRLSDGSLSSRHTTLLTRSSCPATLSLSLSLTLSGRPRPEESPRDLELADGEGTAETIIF
Description: as §1, §2

[3] = biological target: human V2 receptor (Homo sapiens, UniProt P30518); experiment: V2 binding assay (3H-AVP displacement, HEK-293 membranes); conditions: 1.0 μM compound; read-out: V2@1.0, % Inh
Chain of human V2 receptor (P30518 whole entry): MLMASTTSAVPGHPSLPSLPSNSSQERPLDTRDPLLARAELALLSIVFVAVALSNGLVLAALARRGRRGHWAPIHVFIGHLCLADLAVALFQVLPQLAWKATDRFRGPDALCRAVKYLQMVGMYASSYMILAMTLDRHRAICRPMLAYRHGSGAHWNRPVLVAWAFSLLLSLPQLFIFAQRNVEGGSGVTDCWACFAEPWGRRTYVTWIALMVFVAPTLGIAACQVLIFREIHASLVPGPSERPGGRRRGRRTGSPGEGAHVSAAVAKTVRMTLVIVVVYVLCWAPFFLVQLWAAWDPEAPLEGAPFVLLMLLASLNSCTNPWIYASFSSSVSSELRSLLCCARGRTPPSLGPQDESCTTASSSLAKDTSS
Description: as §1, §2

inhibition at 1 µM [1] [%]	inhibition at 1 µM [2] [%]	IC50 [1] [nM]	inhibition at 1 µM [3] [%]	IC50 [2] [nM]	SMILES
61	23	–	–	–	O=C1CCCN1CCCn1c(=O)n(C2CCN(C(=S)NC(c3ccccc3)c3ccccc3)CC2)c2ccccc21 [Compound 175]
–	44	42	0	–	CC(CN1CCCC1)Cn1c(=O)n(C2CCN(C(=O)NC(c3ccccc3)c3ccccc3)CC2)c2ccccc21 (centres unmarked) [Compound 149]
0	0	–	0	–	O=c1n(CCCN2CCCCC2)c2ccccc2n1C1CCN(C(=S)Nc2ccc(N3CCOCC3)cc2)CC1 [Compound 153]
83	29	–	0	–	O=c1n(CCCN2CCCCCC2)c2ccccc2n1C1CCN(C(=S)NC(c2ccccc2)c2ccccc2)CC1 [Compound 141]
–	44	29	3	–	O=c1n(CCCN2CCCCC2)c2ccccc2n1C1CCN(C(=S)NCc2ccc(Cl)cc2)CC1 [Compound 124, 1-[(N1-piperidinocarbothioyl-4-chlorobenzylamino)-4-yl]-3-(3-N-piperidinylpropyl)-1,3-dihydrobenzimidazol-2-one]
–	43	250	0	–	CC(C)(NC(=S)N1CCC(n2c(=O)n(CCCN3CCCCC3)c3ccccc32)CC1)c1ccccc1 [Compound 173]
–	27	150	0	–	O=c1n(CCCN2CCCCC2)c2ccccc2n1C1CCN(C(=S)NCc2ccc3c(c2)OCO3)CC1 [Compound 163]
–	56	68	4	–	O=c1n(CCCN2CCCCCCC2)c2ccccc2n1C1CCN(C(=S)NC(c2ccccc2)c2ccccc2)CC1 [Compound 142]
66	55	–	0	–	CC(C)c1ccccc1NC(=S)N1CCC(n2c(=O)n(CCCN3CCCCC3)c3ccccc32)CC1 [Compound 132, 1-[(N1-piperidinocarbothioyl-2-isopropylphenylamino)-4-yl]-3-(3-N-piperidinylpropyl)-1,3-dihydrobenzimidazol-2-one]
–	–	72	6	700	Cc1ccc2c(c1)n(CCCN1CCCCC1)c(=O)n2C1CCN(C(=S)NC(c2ccccc2)c2ccccc2)CC1 [Compound 172]
–	53	73	3	–	O=c1n(CCCN2CCCCC2)c2ccccc2n1C1CCN(C(=S)N[C@]23C[C@H]4C[C@H](C[C@H](C4)C2)C3)CC1 [Compound 129, 1-[(N1-piperidinocarbothioyl-1-adamantylamino)-4-yl]-3-(3-N-piperidinylpropyl)-1,3-dihydrobenzimidazol-2-one]
62	37	–	0	–	Cc1ccccc1CNC(=O)N1CCC(n2c(=O)n(CCCN3CCCCC3)c3ccccc32)CC1 [Compound 151]
59	28	–	0	–	O=c1n(CCCN2CCC2)c2ccccc2n1C1CCN(C(=S)NC(c2ccccc2)c2ccccc2)CC1 [Compound 140]
–	31	147	–	–	CC(C)N(CCCn1c(=O)n(C2CCN(C(=S)NC(c3ccccc3)c3ccccc3)CC2)c2ccccc21)C1CCCCC1 [Compound 177]
–	50	79	25	–	COc1ccc(C(NC(=S)N2CCC(n3c(=O)n(CCCN4CCCCC4)c4ccccc43)CC2)c2ccc(OC)cc2)cc1 [Compound 136]

Further lines, the compound ahead of its results:

SMILES	inhibition at 1 µM [1] [%]	inhibition at 1 µM [2] [%]	IC50 [1] [nM]	inhibition at 1 µM [3] [%]	IC50 [2] [nM]
O=C1CCCCN1CCCn1c(=O)n(C2CCN(C(=S)NC(c3ccccc3)c3ccccc3)CC2)c2ccccc21 [Compound 176]	59	31	–	–	–
O=c1n(CCCN2CCCCC2)c2ccccc2n1C1CCN(C(=S)NC2CCCCC2)CC1 [Compound 125, 1-[(N1-piperidinocarbothioylcyclohexylamino)-4-yl]-3-(3-N-piperidinylpropyl)-1,3-dihydrobenzimidazol-2-one]	–	35	390	0	–
O=c1n(CCCN2CCCCC2)c2ccccc2n1C1CCN(C(=S)NCc2ccco2)CC1 [Compound 158]	55	18	–	42	–
CN1CCN=C1NCCCn1c(=O)n(C2CCN(C(=S)NC(c3ccccc3)c3ccccc3)CC2)c2ccccc21 [Compound 144]	–	31	395	2	–
O=c1n(CCCN2CCCCC2)c2ccccc2n1C1CCN(C(=S)NCCCc2ccccc2)CC1 [Compound 133, 1-[(N1-piperidinocarbothioylphenpropylamino)-4-yl]-3-(3-N-piperidinylpropyl)-1,3-dihydrobenzimidazol-2-one]	–	42	69	4	–
CC(C)(C)NC(=S)N1CCC(n2c(=O)n(CCCN3CCCCC3)c3ccccc32)CC1 [Compound 130, 1-[(N1-piperidinocarbothioyl-butylamino)-4-yl]-3-(3-N-piperidinylpropyl)-1,3-dihydrobenzimidazol-2-one]	19	26	–	2	–
O=c1n(CCCN2CCCCC2)c2ccccc2n1C1CCN(C(=S)NCC2CCCO2)CC1 (centres unmarked) [Compound 159]	2	10	–	0	–
O=c1n(CCCN2CCCCC2)c2ccccc2n1C1CCN(C(=S)NCc2cccnc2)CC1 [Compound 168]	62	25	–	2	–
CN(C)c1ccc(CNC(=S)N2CCC(n3c(=O)n(CCCN4CCCCC4)c4ccccc43)CC2)cc1 [Compound 165]	40	20	–	3	–
O=c1n(CCCN2CCCCC2)c2ccccc2n1C1CCN(C(=S)NCc2cccs2)CC1 [Compound 160]	–	27	230	0	–
O=c1n(CCCN2CCCCC2)c2ccccc2n1C1CCN(C(=S)Nc2cccnc2)CC1 [Compound 154]	7	0	–	3	–
CC(NC(=S)N1CCC(n2c(=O)n(CCCN3CCCCC3)c3ccccc32)CC1)c1ccc(F)cc1 (centres unmarked) [Compound 137]	–	41	91	0	–
O=c1n(CCCN2CCCCC2)c2ccccc2n1C1CCN(C(=S)NC(c2ccccc2)(c2ccccc2)c2ccccc2)CC1 [Compound 126, 1-[(N1-piperidinocarbothioyltriphenylmethylamino)-4-yl]-3-(3-N-piperidinylpropyl)-1,3-dihydrobenzimidazol-2-one]	0	0	–	0	–
O=c1n(CCCN2CC=CCC2)c2ccccc2n1C1CCN(C(=S)NC(c2ccccc2)c2ccccc2)CC1 [Compound 143]	–	65	41	8	–
O=c1n(CCCN2CCCCC2)c2ccccc2n1C1CCN(C(=S)NCc2ccc(Cl)cc2Cl)CC1 [Compound 164]	–	35	86	5	–
CC1CCCCN1CCCn1c(=O)n(C2CCN(C(=S)NC(c3ccccc3)c3ccccc3)CC2)c2ccccc21 (centres unmarked) [Compound 181]	–	–	23	–	150
CCN(CCCn1c(=O)n(C2CCN(C(=S)NC(c3ccccc3)c3ccccc3)CC2)c2ccccc21)C1CCCCC1 [Compound 179]	–	65	145	–	–
CCC1CCN(CCCn2c(=O)n(C3CCN(C(=S)NC(c4ccccc4)c4ccccc4)CC3)c3ccccc32)C(C)C1 (centres unmarked) [Compound 180]	–	58	67	–	–
CCCCN(CC)CCCn1c(=O)n(C2CCN(C(=S)NC(c3ccccc3)c3ccccc3)CC2)c2ccccc21 [Compound 178]	–	43	90	–	–
